The results in this text go back to patent EP3345917A1, “ANTIPROTOZOAL COMPOUNDS” (Bacoba AG, priority 2017, dated 2018).

Non-standard residues stand in square brackets, D forms with d. Residues, ends and D or L forms follow the SMILES beside them. *: point of attachment. Hexenoyl(2E,4S-Me) = CC[C@H](C)/C=C/C(=O)*; Leu(3R-OH) = CC(C)[C@@H](O)[C@H](N)C(=O)O; X10 = O=C(c1ccccc1)[C@H]1CCCC[C@H]1C(=O)*; NH((S)CH(Me)CH2NMe2) = C[C@@H](CN(C)C)N*; dGly(nOct) = CCCCCCCC[C@@H](N)C(=O)O; Gly(octyl) = CCCCCCCC[C@H](N)C(=O)O; X8 = C[C@@H](CN1CCCCC1)N*; Hexanoyl = CCCCCC(=O)*; X13 = O=C(CCN1CCOCC1)*; Aib = CC(C)(N)C(=O)O; X12 = CCC/C=C/C(=O)*; βAla = NCCC(=O)O Where only a bound is given, the exact number is not on record here.

Data set [1] deals with Trypanosoma brucei rhodesiense (STIB 900 strain). As to the kind of experiment: Alamar Blue assay against Trypanosoma brucei rhodesiense grown in axenic medium. The format is cell-based. The settings on record: In vitro inhibition, read-out: T.b.rhod. The essentials:
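T. b. rhodesiense STIB 900 cultured in axenic medium and exposed to samples in an Alamar Blue viability assay, run in triplicate. IC50 calculated from the readout; melarsoprol served as reference drug.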

Data set [2] concerns Trypanosoma cruzi trypomastigote forms (Tulahuen strain). Nature of the data set: Intracellular Trypanosoma cruzi assay in L6-cells, beta-galactosidase/CPRG readout. The class given is cell-based. The settings on record: In vitro inhibition, read-out: T.cruzi. The essentials:
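L6 rat myoblasts infected with Tulahuen C2C4 LacZ T. cruzi; after incubation, CPRG/Nonidet substrate added and colour developed 2–6 h. Absorbance at 540 nm; IC50 calculated; triplicate tests.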

The subject of data set [3] is Axenically grown Leishmania donovani amastigotes (strain MHOM/ET/67/L82). Nature of the data set: Axenic Leishmania donovani amastigote resazurin assay. The class given is cell-based. The following applies: In vitro inhibition, read-out: L.don. ax. The essentials:
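Strain MHOM/ET/67/L82 amastigotes grown axenically and tested in triplicate by resazurin assay. Plates developed 2-4 hours, fluorescence read at 536 nm excitation/588 nm emission and expressed as percentage of negative control.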

The test system of data set [4] is intracellular Leishmania donovani (L.don. InMac). Nature of the data set: Intracellular Leishmania donovani assay (L.don. InMac). The format is cell-based. The settings on record: In vitro inhibition. From the text: (§1) Tests were done in triplicate.
In a further data set the test system is Plasmodium falciparum. As to the kind of experiment: 3H-hypoxanthine incorporation assay against Plasmodium falciparum. The class given is cell-based. The following applies: In vitro inhibition, read-out: P.falc NF5. The procedure: as §1
IC50 values were calculated by linear interpolation.

Data set [5] is described as follows: Cytotoxicity assay on L6-cells (Alamar Blue). The settings on record: rat, Cytotox L6, Cytotoxicity against rat myoblast cells (L6).
Procedure: Tests were done in triplicate. IC50 values against the parasites as well as cytotoxic effects against rat myoblast (L6-cells) were determined by serial dilution and repeated twice.
After 68 h of incubation under humidified 5% CO2 atmosphere, 10 µl of the Alamar blue marker was added to all wells. The plates were incubated for an additional 2 h. […] The IC50S were calculated by Softmax Pro software (Molecular Devices Cooperation, Sunnyvale, CA). […] Cytotoxicity was measured against rat myoblast cells (Cytotox L6).

`CCCCCCCC[C@H](NC(=O)[C@@H]1CCCN1C(=O)CCCCC)C(=O)N[C@@H](CC(C)C)C(=O)NC(C)(C)C(=O)N[C@@H](CC(C)C)C(=O)N[C@@H](CC(C)C)C(=O)NC(C)(C)C(=O)NC(C)(C)C(=O)NCCC(=O)N[C@@H](C)CN1CCCCC1` [Compound 5886, (2S)-2-{[(2S)-1-hexanoylpyrrolidin-2-yl]formamido}-N-[(1S)-3-methyl-1-[(1-methyl-1-{[(1S)-3-methyl-1-{[(1S)-3-methyl-1-{[1-methyl-1-({1-methyl-1-[(2-{[(2S)-1-(piperidin-1-yl)propan-2-yl]carbamoyl}ethyl)carbamoyl]ethyl}carbamoyl)ethyl]carbamoyl}butyl]carbamoyl}butyl]carbamoyl}ethyl)carbamoyl]butyl]decanamide] (Hexanoyl-P[Gly(octyl)]L[Aib]LL[Aib][Aib][βAla]-X8): the IC50 in data set [1] amounted to 496 nM; in data set [2], 4260 nM; in data set [3], 190 nM; in data set [4], 602 nM; in the data set with Plasmodium falciparum it was 36100 nM. The IC50 at 70 h in data set [5] came to 938 nM.
Take `CCCCCCCC[C@@H](NC(=O)[C@H]1CCCN1C(=O)CCCCC)C(=O)N[C@H](CC(C)C)C(=O)NC(C)(C)C(=O)N[C@H](CC(C)C)C(=O)N[C@H](CC(C)C)C(=O)NC(C)(C)C(=O)NC(C)(C)C(=O)NCCC(=O)N[C@@H](C)CN(C)C` [Compound 5849, (2R)-N-[(1R)-1-[(1-{[(1R)-1-{[(1R)-1-{[1-({1-[(2-{[(2S)-1-(dimethylamino)propan-2-yl]carbamoyl}ethyl)carbamoyl]-1-methylethyl}carbamoyl)-1-methylethyl]carbamoyl}-3-methylbutyl]carbamoyl}-3-methylbutyl]carbamoyl}-1-methylethyl)carbamoyl]-3-methylbutyl]-2-{[(2R)-1-hexanoylpyrrolidin-2-yl]formamido}decanamide] (Hexanoyl-[dP][dGly(nOct)][dL][Aib][dL][dL][Aib][Aib][βAla]-{NH((S)CH(Me)CH2NMe2)}): the IC50 in data set [1] came to 55.6 nM; in data set [2] it was 257 nM; in data set [3] it was 3.5 nM; in data set [4] it was 67.1 nM; in the data set with Plasmodium falciparum it was 7.5 nM. In data set [5], the IC50 at 70 h is 1070 nM.
`CCCCCCCC[C@@H](NC(=O)[C@H]1CCCN1C(=O)CCCCC)C(=O)N[C@H](CC(C)C)C(=O)NC(C)(C)C(=O)N[C@@H](CC(C)C)C(=O)N[C@@H](CC(C)C)C(=O)NC(C)(C)C(=O)NC(C)(C)C(=O)NCCC(=O)N[C@@H](C)CN(C)C` [Compound 5851, (2R)-N-[(1R)-1-[(1-{[(1S)-1-{[(1S)-1-{[1-({1-[(2-{[(2S)-1-(dimethylamino)propan-2-yl]carbamoyl}ethyl)carbamoyl]-1-methylethyl}carbamoyl)-1-methylethyl]carbamoyl}-3-methylbutyl]carbamoyl}-3-methylbutyl]carbamoyl}-1-methylethyl)carbamoyl]-3-methylbutyl]-2-{[(2R)-1-hexanoylpyrrolidin-2-yl]formamido}decanamide] (Hexanoyl-[dP][dGly(nOct)][dL][Aib]LL[Aib][Aib][βAla]-{NH((S)CH(Me)CH2NMe2)}): the IC50 in data set [1] was found to be 165 nM; in data set [2], 1130 nM; in data set [3], 144 nM; in data set [4], 241 nM; in the data set on Plasmodium falciparum, 51.7 nM. In data set [5], the IC50 at 70 h was found to be 1210 nM.
As to `CCCCCCCC[C@H](NC(=O)[C@@H]1CCCC[C@@H]1C(=O)c1ccccc1)C(=O)N[C@@H](CC(C)C)C(=O)NC(C)(C)C(=O)N[C@@H](CC(C)C)C(=O)N[C@@H](CC(C)C)C(=O)NC(C)(C)C(=O)NC(C)(C)C(=O)NCCC(=O)N[C@@H](C)CN(C)C` [Compound 5945, (2S)-2-{[(1R,2S)-2-benzoylcyclohexyl]formamido}-N-[(1S)-1-[(1-{[(1S)-1-{[(1S)-1-{[1-({1-[(2-{[(2S)-1-(dimethylamino)propan-2-yl]carbamoyl}ethyl)carbamoyl]-1-methylethyl}carbamoyl)-1-methylethyl]carbamoyl}-3-methylbutyl]carbamoyl}-3-methylbutyl]carbamoyl}-1-methylethyl)carbamoyl]-3-methylbutyl]decanamide] (X10-[Gly(octyl)]L[Aib]LL[Aib][Aib][βAla]-{NH((S)CH(Me)CH2NMe2)}), the IC50 was 0.4 nM in data set [1]; 34.3 nM in data set [2]; 42700 nM in data set [3]; below 34.7 nM in data set [4]; 42600 nM with Plasmodium falciparum. Moreover, in data set [5], the IC50 at 70 h was 144 nM.
Regarding `CCCCCCCC[C@H](NC(=O)[C@@H]1CCCN1C(C)=O)C(=O)N[C@@H](CC(C)C)C(=O)NC(C)(C)C(=O)N[C@@H](CC(C)C)C(=O)N[C@@H](CC(C)C)C(=O)NC(C)(C)C(=O)NC(C)(C)C(=O)NCCC(=O)N[C@@H](C)CN(C)C` [Compound 5638, (2S)-2-{[(2S)-1-acetylpyrrolidin-2-yl]formamido}-N-[(1S)-1-[(1-{[(1S)-1-{[(1S)-1-{[1-({1-[(2-{[(2S)-1-(dimethylamino)propan-2-yl]carbamoyl}ethyl)carbamoyl]-1-methylethyl}carbamoyl)-1-methylethyl]carbamoyl}-3-methylbutyl]carbamoyl}-3-methylbutyl]carbamoyl}-1-methylethyl)carbamoyl]-3-methylbutyl]decanamide] (Ac-P[Gly(octyl)]L[Aib]LL[Aib][Aib][βAla]-{NH((S)CH(Me)CH2NMe2)}), the IC50 came to 0.4 nM in data set [1]; 98.5 nM in data set [2]; 7 nM in data set [3]; 224 nM in data set [4]; 0.6 nM in the data set with Plasmodium falciparum. In data set [5], this compound yielded an IC50 at 70 h of 634 nM.
`CCCCCCCC[C@H](NC(=O)[C@@H](NC(=O)[C@@H]1CCCN1C(=O)/C=C/[C@@H](C)CC)[C@H](O)C(C)C)C(=O)NC(C)(C)C(=O)N[C@@H](CC(C)C)C(=O)N[C@@H](CC(C)C)C(=O)NC(C)(C)C(=O)NC(C)(C)C(=O)NCCC(=O)N[C@@H](C)CN(C)C` [Compound 5560, (2S)-N-(1-{[(1S)-1-{[(1S)-1-{[1-({1-[(2-{[(2S)-1-(dimethylamino)propan-2-yl]carbamoyl}ethyl)carbamoyl]-1-methylethyl}carbamoyl)-1-methylethyl]carbamoyl}-3-methylbutyl]carbamoyl}-3-methylbutyl]carbamoyl}-1-methylethyl)-2-[(2S,3R)-3-hydroxy-4-methyl-2-{[(2S)-1-[(2E,4S)-4-methylhex-2-enoyl]pyrrolidin-2-yl]formamido}pentanamido]decanamide] ({Hexenoyl(2E,4S-Me)}-P[Leu(3R-OH)][Gly(octyl)][Aib]LL[Aib][Aib][βAla]-{NH((S)CH(Me)CH2NMe2)}): the IC50 amounted to 0.2 nM in data set [1]; 34.5 nM in data set [2]; 0.8 nM in data set [3]; 25.4 nM in data set [4]; 1.1 nM in the data set with Plasmodium falciparum. Moreover, in data set [5], the IC50 at 70 h came out at 791 nM.
In the case of `CCCCCCCC[C@H](NC(=O)[C@@H]1CCCN1C(=O)CCN1CCOCC1)C(=O)N[C@@H](CC(C)C)C(=O)NC(C)(C)C(=O)N[C@@H](CC(C)C)C(=O)N[C@@H](CC(C)C)C(=O)NC(C)(C)C(=O)NC(C)(C)C(=O)NCCC(=O)N[C@@H](C)CN(C)C` [Compound 5650, (2S)-N-[(1S)-1-[(1-{[(1S)-1-{[(1S)-1-{[1-({1-[(2-{[(2S)-1-(dimethylamino)propan-2-yl]carbamoyl}ethyl)carbamoyl]-1-methylethyl}carbamoyl)-1-methylethyl]carbamoyl}-3-methylbutyl]carbamoyl}-3-methylbutyl]carbamoyl}-1-methylethyl)carbamoyl]-3-methylbutyl]-2-{[(2S)-1-[3-(morpholin-4-yl)propanoyl]pyrrolidin-2-yl]formamido}decanamide] (X13-P[Gly(octyl)]L[Aib]LL[Aib][Aib][βAla]-{NH((S)CH(Me)CH2NMe2)}), the IC50 was 15.3 nM in data set [1]; 133 nM in data set [2]; 105 nM in data set [3]; 188 nM in data set [4]; 11.1 nM in the data set on Plasmodium falciparum. In addition, in data set [5], the IC50 at 70 h was 492 nM.
Regarding `CCC/C=C/C(=O)N1CCC[C@H]1C(=O)N[C@@H](CCCCCCCC)C(=O)N[C@H](C(=O)NC(C)(C)C(=O)N[C@@H](CC(C)C)C(=O)N[C@@H](CC(C)C)C(=O)NC(C)(C)C(=O)NC(C)(C)C(=O)NCCC(=O)N[C@@H](C)CN(C)C)[C@H](O)C(C)C` [Compound 5514, (2S)-N-[(1S,2R)-1-[(1-{[(1S)-1-{[(1S)-1-{[1-({1-[(2-{[(2S)-1-(dimethylamino)propan-2-yl]carbamoyl}ethyl)carbamoyl]-1-methylethyl}carbamoyl)-1-methylethyl]carbamoyl}-3-methylbutyl]carbamoyl}-3-methylbutyl]carbamoyl}-1-methylethyl)carbamoyl]-2-hydroxy-3-methylbutyl]-2-{[(2S)-1-[(2E)-hex-2-enoyl]pyrrolidin-2-yl]formamido}decanamide] (X12-P[Gly(octyl)][Leu(3R-OH)][Aib]LL[Aib][Aib][βAla]-{NH((S)CH(Me)CH2NMe2)}), the IC50 in data set [1] was found to be 0.2 nM; in data set [2], 20.1 nM; in data set [3] it was 0.4 nM; in data set [4], 96.8 nM; in the data set on Plasmodium falciparum, 0.8 nM. Moreover, the IC50 at 70 h in data set [5] worked out at 316 nM.
